{"source": "patent US10653737B1", "about": "“Synergistic nutritional compositions for pain management” (Celagenex Research (India) Pvt. Ltd., priority 2019, dated 2020)", "key": {"eNOS gene": {"system": "eNOS gene", "test": "eNOS gene expression by semi-quantitative RT-PCR in H9C2 cells", "type": "cell-based, rat", "settings": "for Regulation in Terms of Folds, eNOS (normalized to β-Actin): control = 1.00", "description": "The test substances were evaluated for its gene expression activity in H9C2 (rat cardiomyocytes), the concentration of test substances (G2, G3 and G4,) is 500 μg/ml were taken for gene expression studies. […] [Hunter C. Champion, et al., PNAS, 2005; 102:5:1661-1666.]\neNOS were estimated for the test substance by gene expression method, where the level of expression of eNOS expression on […] Cardiomyocytes (H9C2) was determined with respect to untreated H9C2 cells.\nThe H9C2 cells treated with test samples were subjected to cell lysis by treating with Tri-extract reagent. Chloroform was added, to isolate the total RNA from the sample and subjected for centrifugation. Out of the three distinct layers observed, upper layer was collected in fresh tube and equal volume of isopropanol was added and incubated at […] for 10 mins. After the incubation followed by centrifugation, appropriate volume of ethanol was added to resuspend the pellet. After incubation and centrifugation, the pellet was air dried and appropriate volume of TAE buffer was added. The isolated total RNA was further used for cDNA synthesis. cDNA was synthesized by priming with oligo-dT primers followed by reverse transcriptase enzyme treatment according to manufacturer's protocol (Thermoscientific). The cDNA thus synthesized was taken up for PCR for the amplification of eNOS and GAPDH (internal control).\nThe mRNA expression levels of eNOS were determined using semi-quantitative reverse transcriptase-polymerase chain reaction (RT-PCR). 50p of the reaction mixture was subjected to PCR for amplification of eNOS. cDNAs using specifically designed primers procured from Eurofins, India and as an internal control GAPDH/3-Actin (House-keeping genes) was co-amplified with each reaction.\neNOS: 95° C. for 5 min followed by 35 cycles of denaturation at 95° C. for 30 seconds, annealing Temp for 30 seconds and extension at 72° C. for 45 seconds. This was followed by final extension at 72° C. for 10 min."}, "[1]": {"system": "Swiss albino mice (tail immersion model)", "test": "Tail immersion model, analgesic potential in experimental mice", "type": "in vivo", "settings": "for Tail immersion latency reaction time: water 55° C., cut off 15 second, Mean ± SEM, n=6; for Percentage maximum possible effect: [(Post drug latency-Pre drug latency)/(15-Pre drug latency)]×100", "description": "Animal Study—Evaluation of analgesic potential of the test substances against tail immersion model in experimental mice.\nMale Swiss albino mice weighing between 30-35 g were used. Mice were placed into individual cylindrical mice holders leaving the tail hanging out freely. The animals were allowed to get acclimatized to mice holders for 30 min before testing. The lower 5 cm portion of the tail was marked. This part of the tail was immersed in a cup of freshly filled water at 55° C. The reaction time was recorded using a stop-watch. After each determination the tail was carefully dried. The reaction time was determined before and periodically 0 min, 30 min, 60 min, 90 min, 120 min, 180 min and 240 min after the oral administration of test substance. The cut off time of immersion was 15 second. The percentage maximum possible effect (% MPE) was calculated using the following formula: [(Post drug latency-Pre drug latency)/(15-Pre drug latency)]×100.\nThe values were expressed in Mean±SEM. The significance of in vivo data was analyzed by One way anova followed by Dunnet test. P<0.05 was considered as statistically significant."}}, "data": [{"smiles": "CCCCCCCCCCCCCCCC(=O)NCCO", "note": "[Composition P3A, palmitoylethanolamide]", "values": [{"measurement": "eNOS expression over expressed as compared to the control", "setting": "eNOS gene; at tested doses (500 μg/ml), increase over control", "result": 0.25, "unit": "folds"}, {"measurement": "Regulation in Terms of Folds, eNOS (normalized to β-Actin)", "setting": "eNOS gene; test substance 500 μg/ml", "result": 1.25, "unit": "fold"}, {"measurement": "Tail immersion latency reaction time", "setting": "[1]; 0 Min, oral", "result": 2.50, "unit": "s"}, {"measurement": "Tail immersion latency reaction time", "setting": "[1]; 30 Min after oral administration", "result": 5.17, "unit": "s"}, {"measurement": "Percentage maximum possible effect", "setting": "[1]; 30 Min", "result": 21.33, "unit": "%"}, {"measurement": "Tail immersion latency reaction time", "setting": "[1]; 60 Min after oral administration", "result": 5.83, "unit": "s"}, {"measurement": "Percentage maximum possible effect", "setting": "[1]; 60 Min", "result": 26.67, "unit": "%"}, {"measurement": "Tail immersion latency reaction time", "setting": "[1]; 90 Min after oral administration", "result": 6.50, "unit": "s"}, {"measurement": "Percentage maximum possible effect", "setting": "[1]; 90 Min", "result": 32.00, "unit": "%"}, {"measurement": "Tail immersion latency reaction time", "setting": "[1]; 120 Min after oral administration", "result": 7.50, "unit": "s"}, {"measurement": "Percentage maximum possible effect", "setting": "[1]; 120 Min", "result": 40.00, "unit": "%"}, {"measurement": "Tail immersion latency reaction time", "setting": "[1]; 180 Min after oral administration", "result": 8.33, "unit": "s"}, {"measurement": "Percentage maximum possible effect", "setting": "[1]; 180 Min", "result": 46.67, "unit": "%"}, {"measurement": "Tail immersion latency reaction time", "setting": "[1]; 240 Min after oral administration", "result": 7.50, "unit": "s"}, {"measurement": "Percentage maximum possible effect", "setting": "[1]; 240 Min", "result": 40.00, "unit": "%"}, {"measurement": "Percentage maximum possible effect compared with Pain control group (in words)", "setting": "[1]; different intervals of time", "result": "significant increased"}, {"measurement": "Tail immersion latency reaction time compared with Pain control group (in words)", "setting": "[1]; different time intervals, One way anova, Dunnet test, P<0.05", "result": "significant increased"}]}, {"smiles": "CC(C)C[C@H](CN)CC(=O)O", "note": "[Pregabalin (LYRICA ®) 75 mg, Pregabalin, reference compound]", "values": [{"measurement": "Regulation in Terms of Folds, eNOS (normalized to β-Actin)", "setting": "eNOS gene; 125 μg/ml", "result": 1.58, "unit": "fold"}, {"measurement": "eNOS gene expression up-regulated over control", "setting": "eNOS gene; standard product (125 μg/ml), increase over control", "result": 0.58, "unit": "fold"}, {"measurement": "Percentage maximum possible effect compared with Pain control group (in words)", "setting": "[1]; mouse, in vivo", "result": "significant increased"}, {"measurement": "Tail immersion latency reaction time compared with Pain control group (in words)", "setting": "[1]; mouse, in vivo", "result": "significant increased"}]}]}
